Assay results taken from patent US20120295907A1, “INSECTICIDAL COMPOUNDS” (SYNGENTA CROP PROTECTION, LLC, priority 2009, published 2012).
Read-outs that look alike come from different tables or passages of the source.

What was measured:
Assay type in all cases: in vivo
[1] = system: Spodoptera littoralis; assay: Spodoptera littoralis (Egyptian Cotton Leafworm) cotton leaf disc spray test; conditions: foliar, 72 h, 200 ppm spray on cotton leaf discs, L1 larvae, mortality, feeding behavior, growth regulation 3 DAT
[2] = system: Plutella xylostella; assay: Plutella xylostella (Diamond Back Moth) artificial diet MTP test; conditions: 144 h, 200 ppm (concentration in well 18 ppm), L2 larvae, 6 days, larval mortality, growth regulation
[3] = system: Tetranychus urticae; assay: Tetranychus urticae (Two-Spotted Spider Mite) bean leaf disc spray test; conditions: foliar, 192 h, read-out: control of Tetranychus urticae
[4] = system: Diabrotica balteata; assay: Diabrotica balteata (Corn Root Worm) artificial diet MTP test; conditions: 120 h, 200 ppm (concentration in well 18 ppm), L2 larvae, 5 days, larval mortality, growth regulation
[5] = system: Heliothis virescens; assay: Heliothis virescens (Tobacco Budworm) egg test on artificial diet; conditions: 96 h, 200 ppm (concentration in well 18 ppm), eggs 0-24 h old on artificial diet, 4 days, egg mortality, larval mortality, growth regulation
[6] = system: Thrips tabaci; assay: Thrips tabaci (Onion Thrips) sunflower leaf disc spray test; conditions: foliar, 168 h, 200 ppm spray on sunflower leaf discs, population of mixed ages, 7 days, mortality
[7] = 200 ppm spray on bean leaf discs, mite populations of mixed ages, 8 days, egg, larval and adult mortality

Measured: pest or weed control at 200 ppm

COc1c(NC(=O)c2ccc(F)cc2Cl)cccc1C(=O)Nc1c(Cl)cc(C(F)(C(F)(F)F)C(F)(F)F)cc1Cl [E19]
≥ 80%: [1] | [2] | [3]; [7] | [4] | [5] | [6]

COc1c(NC(=O)c2cccc([N+](=O)[O-])c2Cl)cccc1C(=O)Nc1c(Cl)cc(C(F)(C(F)(F)F)C(F)(F)C(F)(F)F)cc1Br (stereo not drawn) [B183]
≥ 80%: [1] | [2] | [3]; [7] | [4] | [5] | [6]

COc1c(NC(=O)c2cccc(CC#N)c2)cccc1C(=O)Nc1c(Cl)cc(C(F)(C(F)(F)F)C(F)(F)C(F)(F)F)cc1Br (stereo not drawn) [B110]
≥ 80%: [1] | [2] | [3]; [7] | [4] | [5] | [6]

COc1c(NC(=O)c2ccc([N+](=O)[O-])c(F)c2)cccc1C(=O)Nc1c(Cl)cc(C(F)(C(F)(F)F)C(F)(F)C(F)(F)F)cc1Br (stereo not drawn) [B192]
≥ 80%: [1] | [2] | [3]; [7] | [4] | [5] | [6]

COc1c(NC(=O)c2ccc([N+](=O)[O-])cc2)cccc1C(=O)Nc1c(C)cc(C(F)(C(F)(F)F)C(F)(F)C(F)(F)F)cc1C (stereo not drawn) [F29]
≥ 80%: [1] | [2] | [3]; [7] | [4] | [5] | [6]

COc1c(NC(=O)c2cccc(Cl)c2Cl)cccc1C(=O)Nc1c(Cl)cc(C(F)(C(F)(F)F)C(F)(F)C(F)(F)F)cc1Br (stereo not drawn) [B184]
≥ 80%: [1] | [2] | [3]; [7] | [4] | [5] | [6]

COc1c(NC(=O)c2ccc([N+](=O)[O-])cc2Cl)cccc1C(=O)Nc1c(Cl)cc(C(F)(C(F)(F)F)C(F)(F)C(F)(F)F)cc1Cl (stereo not drawn) [C11]
≥ 80%: [1] | [2] | [3]; [7] | [4] | [5] | [6]

COc1c(NC(=O)c2ccccc2C(F)(F)F)cccc1C(=O)Nc1c(Cl)cc(C(F)(C(F)(F)F)C(F)(F)C(F)(F)F)cc1Cl (stereo not drawn) [C20]
≥ 80%: [1] | [2] | [3]; [7] | [4] | [5] | [6]

COc1c(NC(=O)c2cccc(F)c2F)cccc1C(=O)Nc1c(Cl)cc(C(F)(C(F)(F)F)C(F)(F)C(F)(F)F)cc1Cl (stereo not drawn) [C22]
≥ 80%: [1] | [2] | [3]; [7] | [4] | [5] | [6]

COc1c(NC(=O)c2cc(C)ccc2[N+](=O)[O-])cccc1C(=O)Nc1c(Cl)cc(C(F)(C(F)(F)F)C(F)(F)C(F)(F)F)cc1Br (stereo not drawn) [B74]
≥ 80%: [1] | [2] | [3]; [7] | [4] | [5] | [6]

COc1c(NC(=O)c2cc(Cl)nc(Cl)c2)cccc1C(=O)Nc1c(Cl)cc(C(F)(C(F)(F)F)C(F)(F)C(F)(F)F)cc1Br (stereo not drawn) [B97]
≥ 80%: [1] | [2] | [3]; [7] | [4] | [5] | [6]

COc1c(NC(=O)c2ccc(F)cc2C)cccc1C(=O)Nc1c(Cl)cc(C(F)(C(F)(F)F)C(F)(F)C(F)(F)F)cc1Br (stereo not drawn) [B9]
≥ 80%: [1] | [2] | [3]; [7] | [4] | [5] | [6]

COc1c(NC(=O)c2ccc(Br)cc2Cl)cccc1C(=O)Nc1c(Cl)cc(C(F)(C(F)(F)F)C(F)(F)C(F)(F)F)cc1Br (stereo not drawn) [B135]
≥ 80%: [1] | [2] | [3]; [7] | [4] | [5] | [6]

COc1c(NC(=O)c2ccc(Cl)c(OC)c2Cl)cccc1C(=O)Nc1c(Cl)cc(C(F)(C(F)(F)F)C(F)(F)C(F)(F)F)cc1Br (stereo not drawn) [B109]
≥ 80%: [1] | [2] | [3]; [7] | [4] | [5] | [6]

COc1c(NC(=O)c2ccc([N+](=O)[O-])cc2)cccc1C(=O)Nc1c(Cl)cc(C(F)(C(F)(F)F)C(F)(F)C(F)(F)F)cc1Cl (stereo not drawn) [C7]
≥ 80%: [1] | [2] | [3]; [7] | [4] | [5] | [6]

COc1c(NC(=O)c2cc(C(F)(F)F)nn2C)cccc1C(=O)Nc1c(Cl)cc(C(F)(C(F)(F)F)C(F)(F)C(F)(F)F)cc1Br (stereo not drawn) [B113]
≥ 80%: [1] | [2] | [3]; [7] | [4] | [5] | [6]

COc1c(NC(=O)c2ccc(C(F)(F)F)nc2C)cccc1C(=O)Nc1c(Cl)cc(C(F)(C(F)(F)F)C(F)(F)C(F)(F)F)cc1Br (stereo not drawn) [B127]
≥ 80%: [1] | [2] | [3]; [7] | [4] | [5] | [6]

COc1c(NC(=O)c2ccc([N+](=O)[O-])cc2[N+](=O)[O-])cccc1C(=O)Nc1c(Cl)cc(C(F)(C(F)(F)F)C(F)(F)C(F)(F)F)cc1Br (stereo not drawn) [B180]
≥ 80%: [1] | [2] | [3] | [4] | [5] | [6]

COc1c(NC(=O)c2c(Cl)cccc2[N+](=O)[O-])cccc1C(=O)Nc1c(Cl)cc(C(F)(C(F)(F)F)C(F)(F)C(F)(F)F)cc1Br (stereo not drawn) [B101]
≥ 80%: [1] | [2] | [3]; [7] | [4] | [5] | [6]

CCc1cc(C(F)(C(F)(F)F)C(F)(F)C(F)(F)F)cc(C)c1NC(=O)c1cccc(NC(=O)c2cc(Cl)ccc2Cl)c1OC (stereo not drawn) [A16]
≥ 80%: [1] | [2] | [3]; [7] | [4] | [5] | [6]

COc1c(NC(=O)c2snnc2C)cccc1C(=O)Nc1c(Cl)cc(C(F)(C(F)(F)F)C(F)(F)F)cc1Cl [E20]
≥ 80%: [1] | [2] | [3]; [7] | [4] | [5] | [6]

COc1c(NC(=O)c2ccc(OC(F)(F)F)cc2)cccc1C(=O)Nc1c(Cl)cc(C(F)(C(F)(F)F)C(F)(F)C(F)(F)F)cc1Cl (stereo not drawn) [C13]
≥ 80%: [1] | [2] | [3]; [7] | [4] | [5] | [6]

COc1c(NC(=O)c2snnc2C)cccc1C(=O)Nc1c(Cl)cc(C(F)(C(F)(F)F)C(F)(F)C(F)(F)F)cc1Cl (stereo not drawn) [C21]
≥ 80%: [1] | [2] | [3]; [7] | [4] | [5] | [6]

COc1c(NC(=O)c2snnc2C)cccc1C(=O)Nc1c(Cl)cc(C(F)(C(F)(F)F)C(F)(F)C(F)(F)F)cc1Br (stereo not drawn) [B21]
≥ 80%: [1] | [2] | [3]; [7] | [4] | [5] | [6]

COc1c(NC(=O)c2ccc(C#N)cc2C)cccc1C(=O)Nc1c(Cl)cc(C(F)(C(F)(F)F)C(F)(F)C(F)(F)F)cc1Cl (stereo not drawn) [C2, N-[2,6-dichloro-4-(1,2,2,3,3,3-hexafluoro-1-trifluoromethylpropyl)phenyl]-3-(4-cyano-2-methylbenzoylamino)-2-methoxybenzamide]
≥ 80%: [1] | [2] | [3]; [7] | [4] | [5] | [6]

COc1c(NC(=O)c2ccc([N+](=O)[O-])cc2C(F)(F)F)cccc1C(=O)Nc1c(Cl)cc(C(F)(C(F)(F)F)C(F)(F)C(F)(F)F)cc1Br (stereo not drawn) [B178]
≥ 80%: [1] | [2] | [3]; [7] | [4] | [5] | [6]
